Reference: the supplement of paper PMC6470124

Legend:
[1] = absolute recovery over vacuum-assisted evaporative concentration; higher = better recovery; settings: enrichment method: VEC
Method in brief: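 After spiking with standards before concentration, after concentration or not at all, at 1000 ng/L for wastewater or 200 ng/L for nanopure and surface water with class- and compound-specific adjustments, samples of 6 mL influent, 15 mL effluent and 60 mL surface or nanopure water were evaporated at 55 °C and 20 mbar to about 0.3 mL. They were brought to 0.4 mL, centrifuged, given internal standards and analysed by LC-HRMS/MS. Absolute recovery, (response ratio pre − unspiked)/(post − unspiked) × 100, used averages of ≥ 2 replicates.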

[2] = LC retention time (Atlantis T3, 5-95% MeOH gradient, 0.1% formic acid); higher = more retained / less polar
Method in brief: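 Retention times refer to reference standards measured by liquid chromatography with high-resolution tandem mass spectrometry. Separation was on an Atlantis T3 C18 column (3 × 150 mm, 3 μm) at 0.3 mL/min with a 5 to 95% methanol gradient over 17.5 min, both solvents carrying 0.1% formic acid. Positive and negative electrospray were run separately on a QExactive Plus, and TraceFinder peak integration (5 ppm tolerance, at least three points per peak) was reviewed by hand.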

[3] = absolute recovery over mixed-bed multilayer solid-phase extraction; higher = better recovery; settings: enrichment method: SPE
Method in brief: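 Elution from a three-layer mixed-bed cartridge used basic followed by acidic ethyl acetate/methanol, after loading either 1000 mL of unfiltered nanopure water or 100–250 mL of wastewater that had been set to pH 6.5 and glass-fibre filtered. Standards went in before or after extraction, or were left out, at 200 ng/L (water) or 1000 ng/L (wastewater), with class exceptions. Internal standards were added afterwards, and measurement was by liquid chromatography with high-resolution tandem mass spectrometry in both ionisation modes. For absolute recovery, background-corrected response ratios of pre-spiked samples were compared with those of post-spiked samples and averaged over at least two replicates.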

SMILES	absolute recovery ([1]; wastewater effluent) [%]	absolute recovery ([1]; wastewater influent) [%]	LC retention time [2] [min]	absolute recovery ([3]; nanopure water) [%]	absolute recovery ([3]; surface water) [%]	absolute recovery ([3]; wastewater effluent) [%]	absolute recovery ([3]; wastewater influent) [%]
CC(C)=NOCCOC(=O)C(C)Oc1ccc(Oc2cnc3cc(Cl)ccc3n2)cc1 (stereo unspecified) [Propaquizafop]	68.4	13.2	22.4	79.1	91.4	93.7	80.9
CCNC(=O)C(C)OC(=O)Nc1ccccc1 (stereo unspecified) [Carbetamid]	118	101	16.5	94.2	100	94.9	88.7
Cc1ncc2n1-c1ccc(Cl)cc1C(c1ccccc1F)=NC2 [Midazolam]	102	106	14.5	87.5	90.5	89.6	83
C[NH2+]CCC(Oc1ccccc1C)c1ccccc1 (stereo unspecified) [Atomoxetin]	102	96.6	15.5	74.6	87	79.7	94.5
CC(Oc1ccc(Cl)cc1Cl)C(=O)[O-] (stereo unspecified) [Dichlorprop]	104	99.8	20.1	97.8	95.4	–	87.9
CC(C)c1c(C(=O)Nc2ccccc2)c(-c2ccccc2)c(-c2ccc(F)cc2)n1CCC(O)CC(O)CC(=O)[O-] (stereo unspecified) [Atorvastatin]	49.3	57.8	19.8	31	42.7	45.5	46.5
CC(=O)OC1C(C)OC(n2cc(F)c(N)nc2=O)C1OC(C)=O (stereo unspecified) [2-3-di-O-acetyl-5-deoxy-5-fluorocytidin]	101	91.8	13.9	102	100	92.7	84.6
Cc1c(N)c(=O)n(-c2ccccc2)n1C [4-Aminopyrin (=4-Aminoantipyrin, 4-AA)]	84.1	75.5	9.66	37.8	55.7	24.6	37.4
O=C1Nc2ccc(Cl)cc2C(c2ccccc2Cl)=NC1O (stereo unspecified) [Lorazepam]	108	104	18.3	104	94.3	97.3	87.4
C#CCOc1ccc(CCNC(=O)C(OCC#C)c2ccc(Cl)cc2)cc1OC (stereo unspecified) [Mandipropamid]	110	112	19.2	105	117	110	93.5
CON=C(C1=NOCCO1)c1ccccc1Oc1ncnc(Oc2ccccc2Cl)c1F [Fluoxastrobin]	94.1	112	19.8	97.5	80.2	90.4	83
CC12CCC(=O)C=C1CCC1C2C(O)CC2(C)C(C(=O)CO)CCC12 (stereo unspecified) [Corticosteron]	111	55.6	19	87.8	71.9	71.8	89.1
CC(C)[NH+](CCC(C(N)=O)(c1ccccc1)c1ccccn1)C(C)C (stereo unspecified) [Disopyramide]	98.1	106	12.2	90	94.4	92	104
Cc1cc(C2CC2)nc(Nc2ccccc2)n1 [Cyprodinil]	86.9	88.2	19.8	100	93.8	92.5	89.9
CC(C)c1ccc(NC(=O)N(C)C)cc1 [Isoproturon]	102	103	18.5	98.5	97.4	97	92.5
Cn1nnc2ccccc21 [1-Methyl-Benzotriazol]	83.9	82.1	14	89.4	93.1	88.8	103

SMILES	absolute recovery ([1]; wastewater effluent) [%]	absolute recovery ([1]; wastewater influent) [%]	LC retention time [2] [min]	absolute recovery ([3]; nanopure water) [%]	absolute recovery ([3]; surface water) [%]	absolute recovery ([3]; wastewater effluent) [%]	absolute recovery ([3]; wastewater influent) [%]
CCC(C)c1cc([N+](=O)[O-])cc([N+](=O)[O-])c1[O-] (stereo unspecified) [Dinoseb]	94.2	91.8	21.5	103	82.6	89.1	123
Cc1ccc(NC=O)c(C)c1 [2-4-dimethylphenylformamid]	108	132	16.5	107	101	99.8	96.3
C[NH2+]C(C)C(O)c1ccccc1 (stereo unspecified) [Ephedrin]	107	99	9.53	93.4	93.3	89.3	89.4
COc1ccc2c3c1OC1C(=O)CCC4C(C2)[NH+](C)CCC314 (stereo unspecified) [Hydrocodone]	103	100	9.79	82.5	89.4	93.1	89.3
CCNc1nc(N)nc(Cl)n1 [Atrazin-Desisopropyl]	102	103	13.4	93.4	93.3	91.3	94.6
COCCCOc1cc(CC(CC([NH3+])C(O)CC(C(=O)NCC(C)(C)C(N)=O)C(C)C)C(C)C)ccc1OC (stereo unspecified) [Aliskiren]	87.1	91.1	16.7	67	82.7	68.3	72.9
COc1cc(OC)n2nc(S(=O)(=O)Nc3c(Cl)ccc(C)c3Cl)nc2n1 [Metosulam]	98.6	106	17	98.1	96.2	99.7	92.6
COc1cccc(C(=O)NN(C(=O)c2cc(C)cc(C)c2)C(C)(C)C)c1C [Methoxyfenozid]	104	98.9	19.7	104	103	98.1	94.8
C#CC[NH2+]C(C)Cc1ccccc1 (stereo unspecified) [Nordeprenyl]	38.9	11.4	11.5	74.8	84.7	80.2	78.3
CCCC(Cn1cncn1)c1ccc(Cl)cc1Cl (stereo unspecified) [Penconazol]	105	105	20.9	98.5	97.1	100	87.3
CC([NH3+])C(O)c1ccccc1 (stereo unspecified) [Cathine]	104	96.1	9.27	75.1	70.2	68.1	77.6
COCCN(C(=O)CCl)c1c(C)cccc1C [Dimethachlor]	94.3	97.7	18.8	93	89.9	89.6	95.7
Nc1nc(N)[nH+]c(NC2CC2)n1 [Cyromazin]	101	104	7.27	83.7	–	88.1	91.5
CC1(C(=O)Nc2ccc(O)c(Cl)c2Cl)CCCCC1 [Fenhexamid]	92.1	96.3	20.1	102	–	–	97
CCc1ccc(C(=O)NN(C(=O)c2cc(C)cc(C)c2)C(C)(C)C)cc1 [Tebufenozid]	102	98.1	20.5	104	111	98.7	103

Continued, values first:

absolute recovery ([1]; wastewater effluent) [%]	absolute recovery ([1]; wastewater influent) [%]	LC retention time [2] [min]	absolute recovery ([3]; nanopure water) [%]	absolute recovery ([3]; surface water) [%]	absolute recovery ([3]; wastewater effluent) [%]	absolute recovery ([3]; wastewater influent) [%]	SMILES
101	104	16.2	89.9	102	95.3	54.3	CC(CN1c2ccccc2CCc2ccccc21)C[NH+](C)C (stereo unspecified) [Trimipramin]
98.5	104	14	122	101	100	92.3	NC(=O)c1cn(Cc2c(F)cccc2F)nn1 [Rufinamid]
99	85.5	16.6	99.2	84.5	89.9	89.6	CN1C(=O)CC(C)(c2ccccc2)C1=O (stereo unspecified) [Methsuximide]
94.7	101	19.6	97	93.4	90.7	103	COc1nc(NC(=O)[N-]S(=O)(=O)c2ccccc2C(F)(F)F)nc(C(F)(F)F)n1 [Tritosulfuron]
103	100	14.9	92.3	90.5	92	99.5	CC(=O)NCC1CN(c2ccc(N3CCOCC3)c(F)c2)C(=O)O1 (stereo unspecified) [Linezolid]
107	106	22.2	70.5	70.9	76.1	59.5	CCC(C)C(=O)OC1CC(C)C=C2C=CC(C)C(CCC3CC(O)CC(=O)O3)C21 (stereo unspecified) [Lovastatin]
127	120	20.4	105	127	113	74.2	CCOC(=O)NCCOc1ccc(Oc2ccccc2)cc1 [Fenoxycarb]
104	63.1	18	88	82.7	82.1	91.4	CC12C=CC(=O)C=C1CCC1C2C(O)CC2(C)C1CCC2(O)C(=O)CO (stereo unspecified) [Prednisolon]
103	96.1	12.1	95.2	91.3	86.2	89.8	Cc1cc(C)nc([N-]S(=O)(=O)c2ccc(N)cc2)n1 [Sulfamethazin]
109	–	19.3	96.1	96.5	92.8	–	COc1ccc2cc(C(C)C(=O)[O-])ccc2c1 (stereo unspecified) [Naproxen]
105	102	8.73	92.8	94.1	92.8	93.2	N#CC1CCCN1C(=O)C[NH2+]C12CC3CC(CC(O)(C3)C1)C2 (stereo unspecified) [Vildagliptin]
100	105	15.1	93.7	103	–	81.2	C[N+]1([O-])CCN2c3ccccc3Cc3ccccc3C2C1 (stereo unspecified) [Mianserin-N-Oxide]
87	67.6	4.79	33.5	30.5	33.2	37	NC(=O)c1ncn(C2OC(CO)C(O)C2O)n1 (stereo unspecified) [Ribavirin]
76.9	79.1	11.1	35.1	27.7	47.9	52.5	C[NH+]1CCCC1c1cccnc1 (stereo unspecified) [Nicotine]
104	100	10.2	96.7	98.2	89.1	91.7	NS(=O)(=O)c1cc2c(cc1Cl)NCNS2(=O)=O [Hydrochlorothiazid]
103	99.8	20.8	86.6	80.5	82.3	93.5	CCc1cccc2c3c([nH]c12)C(CC)(CC(=O)[O-])OCC3 (stereo unspecified) [Etodolac]
113	85.2	9.56	89.9	102	96.7	94.1	CC(C)(C)Nc1nc(N)nc(O)n1 [Terbutylazin-desethyl-2-hydroxy]
107	102	12.3	94.8	93.1	93.3	89.5	COCCc1ccc(OCC(O)C[NH2+]C(C)C)cc1 (stereo unspecified) [Metoprolol]
103	135	11.2	88.7	108	93.3	114	CC1COc2c(N3CCN(C)CC3)c(F)cc3c(=O)c(C(=O)[O-])cn1c23 (stereo unspecified) [Levofloxacin]
96.6	58.2	17.3	81	78.3	76.4	87.1	CC12C=CC(=O)C=C1CCC1C2C(=O)CC2(C)C1CCC2(O)C(=O)CO (stereo unspecified) [Prednisone]
98.4	112	17	90.8	–	–	–	O=C1NC(=O)C(c2ccccc2)(c2ccccc2)N1 [Phenytoin]
97.5	94.6	15.9	106	94.6	86.1	121	CC=CC(=O)N(CC)C(CC)C(=O)N(C)C (stereo unspecified) [Crotethamide]
